In paper PMC6368574, “Probing the Inhibition of Microtubule Affinity Regulating Kinase 4 by N-Substituted Acridones” (Scientific Reports, 2019):
“Also recorded” adds a separate entry of the source.

Tests used:
MCF-7 cells = test: ROS measurement by DCFDA staining; format: cell-based, human; conditions: IC50 dose, 5–6 h, flow cytometry
Protocol: The respiratory cycle of mitochondria is the foremost source of reactive oxygen species (ROS), and ROS has the potential to induce cell apoptosis. Thus, it was speculated that the treatment with selected acridone derivatives might lead to the production of ROS. The MCF-7 cells were treated with the IC50 dose of compounds 5, 7b, 7d, 7f and 7h for 5–6 h and ROS levels were quantified by flow cytometry using 2-dichlorofluorescein diacetate (DCFDA) staining.
Besides flow cytometry, levels of ROS were also measured by fluorescence spectroscopy, after treatment with compounds 5, 7b, 7d, 7f and 7h, DCFDA staining and imaging on a fluorescence microscope (Fig. 6D). It is easily observed in the Fig. 6D that the intensifications of green fluorescence in case of treated cells denote the higher levels of ROS.
DCF fluorescence helps to measures innumerable ROS such as H2O2 and hydroxyl radicals. That why DCFDA staining was used to quantify the reactive oxygen species (ROS) level inside the cell as described earlier[17],[41]. Briefly, the MCF-7 cells (70–80% confluent) were incubated with IC50 concentration of each compound and positive control H2O2, respectively in a 24-well culture plates. After 5–6 h incubation of cells with respective compounds, cells were gently washed with 500 μl of prewarmed (at 37 °C) Krebs Ringer buffer (20 mM HEPES, 2 mM MgSO4, 10 mM dextrose, 127 mM NaCl, 1 mM CaCl2 and 5.5 mM KCl), subsequently 10 µM DCFDA (Invitrogen Grand Island, NY) has been added to each well and incubated further for 30 min in dark at 37 °C in a humidified CO2 incubator. After 30 min incubation, the cells were collected by trypsinization and ROS levels were quantified with the help of Flow Cytometry. Nearly 10,000 events for each sample were collected on BD LSR II Flow Cytometry Analyzer, and analyzed with help of FlowJo. For intact cell imaging, cells were washed with PBS, pH 7.4 and imaged for ROS levels estimation using the DCFDA fluorescent dye. Fluorescence images were taken on Nikon-EclipseTS100 microscope.

[1] = test system: panel of kinases of CAMK family; test: Single dose kinase inhibition profiling (ADP-Glo); format: biochemical; conditions: single dose of 10 µM
Text: The selectivity of kinase inhibitors is commonly evaluating them against a panel of closely related kinases based on the hypothesis that off-target interfaces are more likely to be associated with same/different families of kinases with similar amino acid sequence. So, we evaluated the fraction of kinase targets that are within the same kinase family (CAMK family). […] These kinase selectivity results signify the use of these compounds as potential and selective inhibitors towards MARK4.
Figure 7 Kinase selectivity and tau-phosphorylation assay. Kinase selectivity results of (A) compound 7b, (B) compound 7d, (C) compound 7f. The selected panel of kinases was incubated with 10 µM dose of selected compounds and analyzed for percent activity values. The percent kinase activity was calculated in the compound-containing reactions and plotted in terms of percent kinase activity inhibition. (D) Representative flow cytometry histogram of SH-SY5Y cell fractions stained with phosphorylated anti-tau antibodies, each histogram represents the phosphorylation status of tau under different treatments as mentioned in inset.
In vitro profiling of the twenty five members of CAMK family (CAMK-1 and CAMK-2) of kinases was performed with the help of kinase screening kit by following the manufacturer’s protocols (Promega, Madison, USA). Briefly, add desired concentration of each compound (10 µM) to corresponding well of 384-well assay plate. Consecutively, 2 µl of kinase working stock solution was added to each wells of assay plate. Gently mix the reaction mixture on a plate shaker for 2 minutes, centrifuge the assay plate to bring mixture of reagents to the bottom of the wells. Incubate the plate at room temperature (25 °C) for 10 minutes. […] After the completion of reaction, measure the luminescence using an integration time of 0.5 seconds per well. Using net luminescence of the no-compound control (negative control) reactions to represent 100% kinase activity, the percent kinase activity was calculated in the compound-containing reactions and plotted in terms of percent kinase activity inhibition.

| SMILES | ROS levels (MCF-7 cells) | within-family kinase selectivity [1] |
| --- | --- | --- |
| COC(=O)Cn1c2ccccc2c(=O)c2cc(C)ccc21 [Compound 5, Methyl 2-(2-methyl-9-oxoacridin-10(9H)-yl)acetate] | increases the production of ROS |  |
| Cc1ccc(NC(=O)Cn2c3ccccc3c(=O)c3cc(C)ccc32)cc1 [Compound 7f, 2-(2-Methyl-9-oxoacridin-10(9H)-yl)-N-(p-tolyl)acetamide] | increases the production of ROS; also recorded: induce ROS to a higher extent than compound 5 and 7h | more strongly inhibits MARK4 as compared to other kinases of same family |
| Cc1ccc2c(c1)c(=O)c1ccccc1n2CC(=O)NCc1ccccc1 [Compound 7b, N-benzyl-2-(2-methyl-9-oxoacridin-10(9H)-yl)acetamide] | increases the production of ROS; also recorded: induce ROS to a higher extent than compound 5 and 7h | more strongly inhibits MARK4 as compared to other kinases of same family |
| COc1ccccc1NC(=O)Cn1c2ccccc2c(=O)c2cc(C)ccc21 [Compound 7h, N-(2-methoxyphenyl)-2-(2-methyl-9-oxoacridin-10(9H)-yl)acetamide] | increases the production of ROS |  |
| COc1ccc(CNC(=O)Cn2c3ccccc3c(=O)c3cc(C)ccc32)cc1 [Compound 7d, N-(4-methoxybenzyl)-2-(2-methyl-9-oxoacridin-10(9H)-yl)acetamide] | increases the production of ROS; also recorded: induce ROS to a higher extent than compound 5 and 7h | more strongly inhibits MARK4 as compared to other kinases of same family |
